What was measured:
[1] = test system: NIH 3T3 mouse fibroblast cells; assay: Mitogenic assay (mitogen-induced cell proliferation); assay type: cell-based; conditions: NIH3T3, 10 μM compound
HTB174 = assay: SRB antiproliferative assay; assay type: cell-based; conditions: Homo sapiens, HTB174 (Lung), 5% FCS/5 day incubation
Excerpt: (§1) The cells were passaged using Trypsin (Gibco).

HEPG2 = assay: SRB antiproliferative assay; assay type: cell-based; conditions: Homo sapiens, HepG2, HEPG2 (Hepatocel), 5% FCS/5 day incubation
Excerpt: as §1

HT29 = assay: SRB antiproliferative assay; assay type: cell-based; conditions: Homo sapiens, HT-29, HT29 (Colon), 5% FCS/5 day incubation
Excerpt: as §1

HeLa = assay: SRB antiproliferative assay; assay type: cell-based; conditions: Homo sapiens, HeLa (Cervical), 5% FCS/5 day incubation
Excerpt: as §1

U118MG = assay: SRB antiproliferative assay; assay type: cell-based; conditions: Homo sapiens, U-118-MG, U118MG (CNS), 5% FCS/5 day incubation
Excerpt: as §1

MDA-MB-23 = assay: SRB antiproliferative assay; assay type: cell-based; conditions: Homo sapiens; MDA-MB-23 (Breast); SRB; 5% FCS/5 day incubation; read-out: IC50
Excerpt: as §1

A549 = assay: SRB antiproliferative assay; assay type: cell-based; conditions: Homo sapiens, A549, A549 (Lung), 5% FCS/5 day incubation
Excerpt: as §1

MCF7 = assay: SRB antiproliferative assay; assay type: cell-based; conditions: Homo sapiens, MCF7, MCF7 (Breast), 5% FCS/5 day incubation
Excerpt: as §1

[2] = test system: human melanoma MM-RU cells; assay: Lung metastases in MM-RU tumor-bearing mice; assay type: in vivo, nude mice
[3] = test system: Ca^2+ from intracellular pools / capacitative Ca^2+ influx; assay: Intracellular Ca2+ release and capacitative Ca2+ influx; assay type: cell-based; conditions: in vitro
[4] = test system: squamous cell carcinoma (KLN-205) cells; assay: Tumor growth in murine squamous cell carcinoma model; assay type: in vivo, mouse
[5] = Preliminary toxicology, subcutaneous injection for 14 days; assay type: in vivo, CD-1 female mice; conditions: mouse, in vivo, sc, 80 mg/kg/day
Description: The toxicological effects of CLT, and compounds 28, 30 and 31 were tested in CD-1 female mice. A dose of 80 mg/kg/day was given to each mouse via subcutaneous injection for a period of 14 days. Preliminary toxicological data was determined by measuring body weight, gross pathology of organs blood chemistry and histology. The vehicle used was DMF 12%+2% Tween 20 88%.

[6] = mouse, in vivo, po, 120 mg/kg/day

## COc1ccc2c(c1)CNc1ccccc1C2(c1ccccc1)c1ccc(F)cc1 (centres unmarked) [Compound 12]
[1]; Mus musculus
  inhibition at 10 µM: 13%

## COc1ccc(C(=O)N2Cc3ccccc3C(c3ccccc3)c3ccccc32)cc1 (centres unmarked) [Compound 21]
[1]; Mus musculus
  inhibition at 10 µM: 93%
HTB174
  IC50: 1.9 µM

## c1ccc(C2c3ccccc3CNc3ccccc32)cc1 (centres unmarked) [Compound 1]
[1]; Mus musculus
  inhibition at 10 µM: 56%

## COc1cccc2c1C(c1ccccc1Cl)c1cc(Cl)ccc1N(C(=O)c1ccc(Cl)cc1)C2 (centres unmarked) [Compound 24]
[1]; Mus musculus
  inhibition at 10 µM: 89%

## O=C(Oc1ccccc1)N1Cc2ccccc2C(c2ccccc2)c2ccccc21 (centres unmarked) [Compound 14, N-phenoxycarbonyl-11-phenyl-5,6-dihydro-11H-dibenz[b,e]azepine]
[1]; Mus musculus
  inhibition at 10 µM: 98%
other
  melting point: 155 to 165 °C

## c1ccc(CN2Cc3ccccc3C(c3ccccc3)c3ccccc32)cc1 (centres unmarked) [Compound 5]
[1]; Mus musculus
  inhibition at 10 µM: 91%

## CCOC(=O)C(=O)N1Cc2ccccc2C(c2ccccc2)c2ccccc21 (centres unmarked) [Compound 10]
[1]; Mus musculus
  inhibition at 10 µM: 53%

## O=C(c1ccc([N+](=O)[O-])cc1)N1Cc2ccccc2C(c2ccccc2)c2ccccc21 (centres unmarked) [Compound 20]
[1]; Mus musculus
  inhibition at 10 µM: 95%
HEPG2
  IC50: 0.9 µM
HTB174
  IC50: 0.7 µM
HT29
  IC50: 0.7 µM
HeLa
  IC50: 0.6 µM
U118MG
  IC50: 0.9 µM
MDA-MB-23
  IC50: > 1 µM

## O=C(c1ccc2ccccc2c1)N1Cc2ccccc2C(c2ccccc2)c2ccccc21 (centres unmarked) [Compound 25]
[1]; Mus musculus
  inhibition at 10 µM: 75%

## O=C(O)C(=O)N1Cc2ccccc2C(c2ccccc2)c2ccccc21 (centres unmarked) [Compound 11]
[1]; Mus musculus
  inhibition at 10 µM: 32%

## COc1ccc(C(=O)N2Cc3ccccc3C(c3ccccc3Cl)c3ccccc32)cc1 (centres unmarked) [Compound 27]
[1]; Mus musculus
  inhibition at 10 µM: 99%
HEPG2
  IC50: 0.4 µM
HTB174
  IC50: 0.3 µM
A549
  IC50: 1.1 µM
HT29
  IC50: 0.4 µM
MCF7
  IC50: 0.5 µM
HeLa
  IC50: 0.2 µM
U118MG
  IC50: 0.4 µM
MDA-MB-23
  IC50: > 1 µM

## O=C(c1ccc(Cl)cc1)N1Cc2ccccc2C(c2ccccc2)c2ccccc21 (centres unmarked) [Compound 13]
[1]; Mus musculus
  inhibition at 10 µM: 97%

## COc1cccc2c1C(c1ccccc1Cl)c1cc(Cl)ccc1NC2 (centres unmarked) [Compound 18]
[1]; Mus musculus
  inhibition at 10 µM: 99%

## O=C(Nc1ccccc1)N1Cc2ccccc2C(c2ccccc2Cl)c2ccccc21 (centres unmarked) [Compound 32]
[1]; Mus musculus
  inhibition at 10 µM: 99%

## Clc1ccccc1C1c2ccccc2CNc2ccccc21 (centres unmarked) [Compound 3]
[1]; Mus musculus
  inhibition at 10 µM: 99%

## Clc1ccccc1C(c1ccccc1)(c1ccccc1)n1ccnc1 [Clotrimazole, reference compound]
[2]; MM-RU tumor-bearing mice, 120 mg/kg/d × 21, p.o.
  Lung Metastases: 64 ± 20
[2]; [6]
  Body Wt. Change: 86%
  Liver Wt.: 1.19 ± 0.10 gram
[3]
  Ca^2+ release from intracellular pools: releases Ca^2+ from intracellular pools
  capacitative Ca^2+ influx into the cell: inhibits capacitative Ca^2+ influx
[4]; KLN induced tumors
  cyclin D1 and PCNA expression in vivo: abrogated cyclin D1 and PCNA expression
[4]; KLN-205, subcutaneous injection or oral administration of 80 mg/kg/day for 30 days
  tumor growth: significantly inhibited tumor growth
[5]
  overall body weight vs age matched control animals: no significant gains or losses
[1]
  inhibition at 10 µM: 93%

## CN1Cc2ccccc2C(c2ccccc2)c2cc(Br)ccc21 (centres unmarked) [Compound 7]
[1]; Mus musculus
  inhibition at 10 µM: 99%

— US6992079B2, “Substituted 11-phenyl-dibenzazepine compounds useful for the treatment or prevention of diseases characterized by abnormal cell proliferation” (President Fellows of Harvard College, priority 1997, dated 2006)
